Data reported in patent publication US20230118142A1, “AGENTS FOR USE IN THE TREATMENT OF TISSUE DAMAGE” (UCL BUSINESS LTD, priority 2020, published 2023).

What was measured:
CRP [1] = target: T1, CRP (Homo sapiens, UniProt P02741); assay: Roche immunoturbidimetric assay: pure CRP; assay type: binding; parameters: The final concentrations were 0.73 μM native pentameric CRP; from tissue
T1 sequence (P02741 19-224): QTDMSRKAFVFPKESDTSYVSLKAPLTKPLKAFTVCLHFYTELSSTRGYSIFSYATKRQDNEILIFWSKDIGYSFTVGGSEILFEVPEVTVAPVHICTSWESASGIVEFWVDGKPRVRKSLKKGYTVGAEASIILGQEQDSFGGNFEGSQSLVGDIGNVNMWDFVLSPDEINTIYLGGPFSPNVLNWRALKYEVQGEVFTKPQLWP
Procedure: (i) Human CRP at ˜90 μg/ml (3.9 μM monomer or 0.78 μM pentamer) in TC buffer was prepared from a stock solution; a 75 μl aliquot was used in the assay.
(ii) Compounds were prepared from stock solutions at up to 10 mM in TC (labelled S1). They were serially diluted with TC buffer (100 μl ligand+200 μl TC) to provide up to 9 dilutions, S2-S10. A TC buffer control (S0) was included in each assay.
(iii) A 15 μl volume of each ligand solution was incubated with 75 μl of CRP for 1 h at 37° C. The final concentrations were CRP pentamer=0.73 μM, ligands S1-S10=625-0.03 μM, corresponding to ligand:CRP pentamer ratios of 853-0.04.
(iv) CRP concentrations were measured by the Roche microparticle-enhanced immunoturbidimetric assay (10) on the COBAS MIRA autoanalyser, and results expressed as a percentage of the CRP control.
(v) Data were plotted using Sigmaplot (V14) using the 4 parameter logistic curve y=min+(max−min)/(1+(x/EC50)^−Hill slope) to calculate EC50.
(vii) All compounds were assayed in comparison with a highly purified preparation of BPC8, that was prepared by Carbogen AMCIS AG, dissolved in sterile water and diluted into TC buffer as required.
The immunoturbidimetric CRP assay on the Roche COBAS MIRA Plus autoanalyser, utilises two different sized microparticles that are covalently coupled with two different monoclonal antibodies, which recognise different CRP epitopes. The assay was developed by Roche for clinical measurement of CRP serum and plasma with high sensitivity and a very wide dynamic range. Serendipitously, one of the two antibodies binds to an epitope present on the ligand binding B-face of CRP. Thus, when the binding pocket is occupied by ligand and, especially, when the B-face is occluded by the B-face to B-face interaction of two native CRP pentamers produced by cross linking via our unique bivalent ligands, the assay fails to detect the CRP. In contrast, the CRP is all detected and assayed normally by other assays that disrupt the crosslinking and/or use antibodies which recognise different, non-occluded, epitopes. Inhibition of CRP recognition in the Roche assay is thus a convenient tool to monitor the efficacy and potency of complex formation between our unique ligands and CRP.

[2] = In vivo clearance of ligand; conditions: male, C57BL/6, mouse, serum, 0.5 mg; mice, intravenous; read-out: half-life (t1/2) of ligand in mouse circulation
Procedure: (i) Ligand (0.5 mg/animal) dissolved in PBS or saline (200 μl) was injected intravenously into the tail vein of six male; 23-27 week old wild-type C57BL/6 mice. Up to two blood samples plus a terminal sample per mouse were collected at each time point up to 180 minutes.
(ii) Serum was prepared and ˜200 ng of internal standard (either ^2H4-BPC6 or BPC9) added. Serum proteins were precipitated with 4 volumes of either ice cold methanol or acetonitrile. The supernatant was dried under vacuum and re-dissolved in 0.1% v/v aqueous formic acid. (iii) Samples were chromatographed on a Phenomenex Aqua column using a gradient of 0.1% v/v formic acid-60% v/v acetonitrile in formic acid, and the eluate passed into the positive ion source of a Quattro II triple quadrupole mass spectrometer. The MRM transitions used were m/z 449.3→390.2 and 453.→394.2 (BPC6) and m/z 477.3→418.3, […] (BPC8).
(iv) Ligand concentrations were measured against an extracted standard curve and were plotted using Sigmaplot (v14) and fitted to a 2-parameter exponential decay.

CRP [3] = target: T1, CRP; parameters: The final concentrations were 0.73 μM native pentameric CRP; from tissue; conditions: rats undergoing coronary artery ligation and receiving human CRP; cited from earlier work
CRP [4] = target: T1, CRP; assay: Immobilised phosphocholine plate assay (125I-CRP binding); parameters: The final concentrations were 0.73 μM native pentameric CRP; from tissue; conditions: read-out: IC50 for inhibition of 125I-CRP binding to immobilised phosphocholine
Procedure: (i) Phosphocholine was immobilised on Greiner NHS-activated microtitre plates by incubation with 4-aminophenyl-1-phosphocholine. Remaining active sites were blocked by incubation with 4% w/v BSA in TC buffer (TCB).
(ii) Human CRP at 1 μg/ml in TC buffer was spiked with ^125I-labelled CRP to provide 10^6 cpm/ml.
(iii) Compounds were prepared from up to 10 mM stock solutions by dilution in TC buffer to 0.5 mM (labelled S1). Serial dilutions were prepared by diluting 100 μl ligand solution with 200 μl TC buffer (S2-S10). A ligand-free control was also used (SO, TC only).
(iv) A 100 μl volume of CRP solution was incubated with 10 μl of each compound (S1-S10, SO) for 1 h at room temperature without stirring, to provide final ligand concentrations across the range 45.5 μM-6.9 nM with a ligand:CRP monomer molar ratio of 1151-0.06. In some cases, single fixed ligand concentrations were also assayed in comparison with PC.
(v) A 100 μl volume of each CRP-ligand mixture was added to the plate wells and incubated for 2 h at room temperature. Solutions were then discarded and the plates washed with TCB buffer. Bound radioactivity was measured (1 min counts) using a gamma counter (Perkin Elmer Wizard 2470).
(vi) Data were plotted with Sigmaplot v14 software using the 4-parameter logistic curve y=min+(max−min)/(1+(x/EC50)^−Hill slope) to calculate IC50.

CRP [5] = target: T1, CRP; assay: Size exclusion chromatography of CRP/ligand cross linking; assay type: binding; parameters: The final concentrations were 0.73 μM native pentameric CRP; from tissue
Procedure: (i) Ligands were diluted to 0.5 mM in TC buffer from up to 10 mM stocks. Serial dilutions were prepared as required. […]
(iii) The complex was chromatographed on a Superdex200 column (10/300 GL; 24 ml bed volume), connected to the ÅKTA100 Explorer HPLC system, and equilibrated and eluted in TC buffer at 0.5 ml/min. Eluates were monitored at 280 nm and fractions (0.5 ml) collected as required.
Size exclusion chromatography on a Superdex 200 column equilibrated and eluted with TC buffer pH 8.0, and calibrated with standard globular marker proteins and with human CRP, the native CRP pentamer (Mr 115 kDa) eluted at 13.9 ml (range 13.7-14.0 ml, n=10).

CRP [6] = target: T1, CRP; assay: Rat acute myocardial infarction model (coronary artery ligation) with human CRP; assay type: in vivo; parameters: The final concentrations were 0.73 μM native pentameric CRP; from tissue; conditions: rats; ischaemia reperfusion and terminal coronary artery ligation; unpublished observations
Text: Human CRP and activated rat complement were deposited in and around the infarct and the exacerbation of tissue damage was absolutely complement dependent. Similar observations were made in the middle cerebral artery occlusion model of stroke in rats (3).
The design of the first small molecule inhibitor of CRP binding for use in vivo, bis(phosphocholine)hexane (BPC6), enabled conclusive confirmation of the pathogenic role of human CRP in exacerbating tissue damage after ischaemic infarction (4).

CRP [7] = target: T1, CRP; assay: In vivo clearance of CRP/ligand complexes generated in vivo in mice; parameters: The final concentrations were 0.73 μM native pentameric CRP; from tissue
Procedure: (i) Two groups of 8 wild-type C57BL/6 mice (male; 23-27 weeks old) were used: group 1 (control) and group 2 (treated).
(ii) Both groups of animals were given 200 μl of human CRP (5 mg/ml in azide-free TC buffer) subcutaneously on day 1.
(iii) On day 2 (+18 h), control animals were given a 200 μl intravenous bolus of TC buffer. Treated animals were given a 200 μl iv bolus of ligand (prepared at 5 mg/ml in TC buffer).
(iv) One timed blood sample and a terminal blood sample were collected from each mouse into heparinised tubes and weighed. This generated data in quadruplicate at 4 time points, normally 30, 60, 120 and 360 minutes.
(v) ^125I radiolabel was measured (Perkin Elmer Wizard; protocol #1) in whole blood to quantify total CRP. In some cases, electroimmunoassay as above was also used to determine total CRP concentration.
(vi) Plasma was prepared and free CRP determined by Roche immunoassay.
Subcutaneous injection of human CRP provided circulating CRP concentrations with which to test for effects of our ligands in vivo. (Table 4).

Row | IC50 (CRP [1]; pure CRP in TC buffer, read-out: IC50 (μM), SD, inhibition of Roche CRP immunoreactivity) [µM] | half-life [2] [min] | excess of ligand over CRP pentamer causing 50% reduction of immunoreactivity (CRP [1]) [fold] | IC50 (CRP [4]) [µM] | Stable to rechromatography (CRP [5]; CRP/ligand complex re-chromatographed in absence of free ligand) | CRP elution volume from Superdex 200 after pre-incubation with ligand (CRP [5]; native CRP pentamer elutes at 13.9 ml) [mL] | Protective effect against human CRP pathogenicity (CRP [6]) | Time by which Roche value was the same as in control mice (CRP [7]; i.v. bolus 1 mg 18 h after s.c. CRP) [h] | SMILES | Effect on increased tissue damage caused by human CRP (CRP [3]) | Effect on detection of circulating CRP in the Roche assay (CRP [7]; i.v. bolus 18 h after s.c. CRP (1 mg))
1 | 4.7 | 16.1 |  |  |  |  |  |  | C[N+](C)(C)CCOP(=O)([O-])OCCCCCCOP(=O)([O-])OCC[N+](C)(C)C [BPC6, bis(phosphocholine)hexane] | completely abrogated the increased damage | 
2 |  | 15.4 | 2.5 | 2.2 | No | 12.6 | same protective effect | ≤ 3 | C[N+](C)(C)CCOP(=O)(O)OCCCCCCCCOP(=O)(O)OCC[N+](C)(C)C [BPC8, 1,8-bis(phosphocholine)-octane, reference compound] |  | immediately blocked detection of circulating CRP
